From US20020025983A1, “Vitamin K and essential fatty acids” (priority 2000, published 2002)

Assays:
[1] = tested on: person with severe menstrual cramps and mild premenstrual syndrome; assay: Case report: person with severe menstrual cramps and mild premenstrual syndrome given EPO and fish oil, vitamin K1, then EPO and fish oil again; type: in vivo, human; details: vitamin K1 supplement 2 mg (2000 μg) per day for a month, alone
Description: A second person presented with severe menstrual cramps and mild premenstrual syndrome. […] They therefore took 2 mg (2000 μg) per day of a vitamin K1 supplement for a month which also had no effect on their menstrual problems.

[2] = tested on: person with atopic dermatitis and with mild premenstrual syndrome; assay: Case report: person with atopic dermatitis and mild premenstrual syndrome given EPO, vitamin K1, then EPO again; type: in vivo, human; details: vitamin K1 supplements alone
Description: A person with atopic dermatitis and with mild premenstrual syndrome was recommended to take 3 g/day of evening primrose oil (EPO). EPO is a widely used nutritional supplement for these problems. It contains about 70% of linoleic acid, but more importantly contains 8-12% of GLA which can by-pass a block in the conversion of linoleic acid to GLA which can occur in many situations, including atopic dermatitis, stress and menstrual disorders. […] As an experiment they were then cautiously given EPO again.

women with osteoporosis = details: 45 mg/day; cited from earlier work

Molecule | effect on menstrual problems [1] | improvement of skin or premenstrual syndrome [2] | vitamin K deficiency [2] | progressive loss of bone mineral density (women with osteoporosis) | risk of bone fractures (women with osteoporosis)
CC1=C(C/C=C(\C)CCC[C@H](C)CCC[C@H](C)CCCC(C)C)C(=O)c2ccccc2C1=O [vitamin K1, phylloquinone] | no effect | did not improve | corrected | – | –
menaquinones [vitamin K2] | – | – | – | slow down but not prevent | could reduce the risk of bone fractures
